No end group written: not given here.
What was measured:
[1] = tested on: Human retinal endothelial cells; test: Cell penetration and retention, western blot with anti-P1 monoclonal antibody; type: in vitro ADME; conditions: 16 h; for intracellular concentration (level of P1 in cells, densitometry relative to β-actin): cell uptake, 100 µM peptide, serum-free DMEM/F12 (low glucose), cell lysate, western blot with anti-P1 monoclonal antibody, mean ± SEM, n = 3
Method: Fig. 1 Conjugation with CPP increases the cell permeability of P1. A Human retinal endothelial cells were treated with vehicle (CONT), P1 or CPP-P1 (100 µM). Following incubation for 16 h, the levels of P1 in cells were detected by western blotting using an anti-P1 monoclonal antibody. Densitometric analysis was performed relative to β-actin levels (n = 3). Data represented as mean ± SEM, One-way ANOVA followed by Tukey’s multiple comparisons test, ***p < 0.001, ns-not significant. The entire western blot image is shown in Supplementary Figure 1. B Human retinal explants comparing the difference in neuroprotective efficacy of P1 with and without the CPP. C Representative images, RBPMS, Scale bar = 100 µm.
Human retinal endothelial cells were incubated with vehicle, P1, or CPP-P1 (100 µM) in serum-free DMEM/F12 (low glucose) medium for 16 h. Cells were treated with 1X RIPA buffer containing protease inhibitor cocktail and cell lysates were prepared. Western blot was performed using an anti-P1 monoclonal antibody with β-actin as the loading control (n = 3).

RGC = conditions: accumulates within RGC somas in a time-dependent manner; cited from earlier work

Row | intracellular concentration (level of P1 in cells, densitometry relative to β-actin) [1] | cell permeability of CPP-P1 relative to P1 ([1]; 100 µM, human retinal endothelial cells, western blot) | Sequence | RGC permeability (RGC)
1 | 0.23 ± 0.01 |  | DRFSVNLDVKHFSPEELKVK [P1] | RGC-permeable
2 | 1.41 ± 0.17 | approximately seven | VPTLKDRFSVNLDVKHFSPEELKVK [CPP-P1] | 

Reference: publication PMC11213865, “Mechanisms contributing to inhibition of retinal ganglion cell death by cell permeable peptain-1 under glaucomatous stress” (Cell Death Discovery, 2024)
